Assay results published in US10392405B2, “Macrocyclic immunomodulators” (CHEMOCENTRYX, INC., priority 2017, dated 2019).

target: human PD-L1 / Human PD-1 (Homo sapiens (Human), UniProt Q9NZQ7); test: Enzyme-Linked Immunosorbent Assay (ELISA), PD-1/PD-L1 binding; conditions: plate-coated human PD-L1, biotinylated human PD-1, absorbance 450 nm
Experimental: 96 Well plates were coated with 1 μg/mL of human PD-L1 (obtained from R&D) in PBS overnight at 4° C. The wells were then blocked with 2% BSA in PBS (W/V) with 0.05% TWEEN-20 for 1 hour at 37° C. The plates were washed 3 times with PBS/0.05% TWEEN-20 and the compounds were serial diluted (1:5) in dilution medium and added to the ELISA plates. Human PD-1 and biotin 0.3 μg/mL (ACRO Biosystems) were added and incubated for 1 hour at 37° C. then washed 3 times with PBS/0.05% TWEEN-20. A second block was performed with 2% BSA in PBS (W/V)/0.05% TWEEN-20 for 10 min at 37° C. and was washed 3 times with PBS/0.05% TWEEN-20. Streptavidin-HRP was added for 1 hour at 37° C. then washed 3 times with PBS/0.05% TWEEN-20. TMB substrate was added and reacted for 20 min at 37° C. A stop solution (2 N aqueous H2SO4) was added. The absorbance was read at 450 nm using a micro-plate spectrophotometer.
Compounds in Table 1 were prepared by methods as described in the Examples and evaluated according to the assay above. The IC50 of the compounds are presented in Table 1 as follows: • +, 20000 nM≥IC50≥500 nM; • ++, 500 nM≥IC50≥100 nM; • +++, 100 nM>IC50.

Sequence of human PD-L1 / Human PD-1 (Q9NZQ7 19-239): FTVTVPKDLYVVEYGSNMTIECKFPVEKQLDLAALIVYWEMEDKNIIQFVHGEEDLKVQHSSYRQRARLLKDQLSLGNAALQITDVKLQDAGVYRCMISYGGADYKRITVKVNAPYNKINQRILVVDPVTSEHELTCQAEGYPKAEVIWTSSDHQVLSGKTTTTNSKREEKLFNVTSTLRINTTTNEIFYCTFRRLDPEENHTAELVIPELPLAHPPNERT

Row | IC50 [nM] | SMILES
1 | < 100 | Cc1c(COc2cc3c(cc2Cl)CNC(CO)CCCCNC(=O)c2cncc(c2)CO3)cccc1-c1cccc(OCCCN2CC[C@@H](O)C2)c1C (single isomer, unassigned) [Compound 1.024]
2 | < 100 | COc1cccc(-c2cccc(COc3cc4c(cc3Cl)CN[C@H](C(=O)O)CCCCNC(=O)c3cncc(c3)CO4)c2C)c1F [Compound 1.001]
3 | < 100 | Cc1c(COc2cc3c(cc2Cl)CN[C@H](C(=O)O)CCCCNC(=O)c2cncc(c2)CO3)cccc1-c1ccc2c(c1)OCCO2 [Compound 1.002]
4 | < 100 | Cc1c(COc2cc3c(cc2Cl)CN[C@H](C(=O)O)CCCCNC(=O)c2cncc(c2)CO3)cccc1-c1ccccc1F [Compound 1.003]
5 | < 100 | Cc1c(COc2cc3c(cc2Cl)CN[C@H](C(=O)O)CCCCNC(=O)c2cncc(c2)CO3)cccc1-c1cccc(OCCCN2CCC(O)CC2)c1C [Compound 1.004]
6 | 500 to 20000 | Cc1c(COc2cc3c(cc2Cl)CN[C@H](C(=O)O)CCCCNC(=O)c2cncc(c2)CO3)cccc1-c1cccc(OCCCCl)c1C [Compound 1.005]
7 | 100 to 500 | Cc1c(COc2cc3c(cc2Cl)CN[C@@H](CO)C(=O)NCCNC(=O)c2cncc(c2)CO3)cccc1-c1ccccc1 [Compound 1.006]
8 | 100 to 500 | O=C1NCCCC[C@@H](C(=O)O)NCc2cc(Cl)c(O[C@H]3CCc4c(-c5ccccc5F)cccc43)cc2OCc2cncc1c2 [Compound 1.007]
9 | 100 to 500 | Cc1c(COc2cc3c(cc2Cl)CN[C@H](C(=O)O)COCCNC(=O)c2cncc(c2)CO3)cccc1-c1ccccc1 [Compound 1.008]
10 | 500 to 20000 | Cc1c(COc2cc3c(cc2Cl)CN[C@H](C(=O)O)CCNC(=O)c2cncc(c2)CO3)cccc1-c1ccccc1 [Compound 1.009]
11 | 100 to 500 | Cc1c(COc2cc3c(cc2Cl)CN[C@H](C(=O)O)CCCNC(=O)c2cncc(c2)CO3)cccc1-c1ccccc1 [Compound 1.010]
12 | 100 to 500 | Cc1c(COc2cc3c(cc2Cl)CN[C@H](CC(=O)O)CCCCNC(=O)c2cncc(c2)CO3)cccc1-c1ccccc1 [Compound 1.011]
13 | 100 to 500 | Cc1c(COc2cc3c(cc2Cl)CN[C@H](C(=O)O)CCCCNC(=O)CCCCO3)cccc1-c1ccccc1 [Compound 1.012]
14 | 500 to 20000 | Cc1c(COc2cc3c(cc2Cl)CN[C@H](C(=O)O)CCCCNC(=O)c2cncc-3c2)cccc1-c1ccccc1 [Compound 1.013]
15 | < 100 | O=C1NCCCC[C@@H](C(=O)O)NCc2cc(Cl)c(O[C@H]3CCc4c(-c5ccc6c(c5F)OCCO6)cccc43)cc2OCc2cncc1c2 [Compound 1.014]
16 | < 100 | Cc1c(COc2cc3c(cc2Cl)CN[C@H](C(=O)O)CCCCNC(=O)c2cncc(c2)CO3)cccc1-c1ccccc1 [Compound 1.016]
17 | < 100 | Cc1c(COc2cc3c(cc2Cl)CN[C@H](C(=O)O)CCCCNC(=O)c2cncc(c2)CO3)cccc1-c1cccc(OCCCN2CC(O)C2)c1C [Compound 1.020]
18 | < 100 | Cc1c(COc2cc3c(cc2Cl)CN[C@H](C(=O)O)CCCCNC(=O)c2cc(C#N)cc(c2)CO3)cccc1-c1cccc(OCCCN2CCC(F)CC2)c1C [Compound 1.021]
19 | < 100 | Cc1c(COc2cc3c(cc2Cl)CN[C@H](CO)CCCCNC(=O)c2cncc(c2)CO3)cccc1-c1cccc(OCCCN2CCC(F)CC2)c1C [Compound 1.025]
